Experiment [1] deals with Adenosine A2 receptor (Homo sapiens, UniProt P29275+P29274).
Description: Inhibition of the stimulation by 5'-(N-ethylcarbamoyl) adenosine of adenyl cyclase via adenosine A2 receptor in human platelet membranes.
In experiment [2] the target is T1, Adenosine receptor A1 (Rattus norvegicus, UniProt P25099).
T1 sequence (P25099 whole entry): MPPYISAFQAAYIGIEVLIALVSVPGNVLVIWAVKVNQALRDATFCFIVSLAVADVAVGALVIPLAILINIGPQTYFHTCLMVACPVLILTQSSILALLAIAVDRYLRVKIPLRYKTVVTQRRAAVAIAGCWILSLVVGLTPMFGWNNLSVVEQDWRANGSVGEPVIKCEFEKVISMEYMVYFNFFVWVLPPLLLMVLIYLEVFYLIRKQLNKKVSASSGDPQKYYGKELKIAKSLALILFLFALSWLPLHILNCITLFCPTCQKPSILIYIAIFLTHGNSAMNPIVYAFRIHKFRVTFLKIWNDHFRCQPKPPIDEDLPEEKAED
The experiment can be described thus: Inhibition of 1 nM [3H]- N6 -(phenylisopropyl) adenosine binding to Adenosine A1 receptor in rat fat cell membrane. It is filed as cell-based.

The target in experiment [3] is T1, Adenosine receptor A1. The experiment can be described thus: Inhibition of 1 nM [3H]- N6-(phenylisopropyl) adenosine binding to Adenosine A1 receptor in rat cerebral cortical membranes. The format is cell membranes, Membrane.
Experiment [4] concerns the target Adenosine A2 receptor (Rattus norvegicus, UniProt P29276+P30543). The settings on record: pc-12.
Description: Inhibition of the stimulation by 5'-(N-ethylcarbamoyl) adenosine of adenyl cyclase via Adenosine A2 receptor in rat PC12 membranes
The target of experiment [5] is T1, Adenosine receptor A1. The experiment can be described thus: Inhibition of N6-(phenylisopropyl)adenosine-elicited inhibition of adenylate cyclase at Adenosine A1 receptor in rat fat cell membrane; I =inactive.
Experiment [6] has as its target T1, Adenosine receptor A1. The experiment can be described thus: Inhibition of […] nM [3H]- N6- (phenylisopropyl) adenosine binding to Adenosine A1 receptor in rat cerebral cortical membranes; I = Inactive. It is filed as cell membranes, Membrane.
Experiment [7] addresses T1, Adenosine receptor A1. Kind of experiment: Inhibition of […] nM [3H]- N6- (phenylisopropyl) adenosine binding to A1 adenosine receptor in rat cerebral cortical membranes. The format is cell membranes, Membrane.
Experiment [8] concerns the target T1, Adenosine receptor A1. The experiment can be described thus: Inhibition of N6-(phenylisopropyl)adenosine-elicited inhibition of adenylate cyclase at A1 adenosine receptor in rat fat cell membrane.
Experiment [9] addresses T1, Adenosine receptor A1. The experiment can be described thus: Inhibition of […] nM [3H]- N6- (phenylisopropyl) adenosine binding to Adenosine A1 receptor.

Molecules are shown by their SMILES.

By Ki is commonly meant the equilibrium dissociation constant of an inhibitor or competing ligand from its target. A higher Ki goes with a looser hold on the target. For `Cn1c(=O)c2nc(-c3ccc(C(=O)O)cc3)[nH]c2n(C)c1=O`, on Adenosine A2 receptor [1], the Ki worked out at 1.5 µM.

For the compound `CCCn1c(=O)c2nc[nH]c2n(CCC)c1=O`, the Ki at Adenosine receptor A1 [2] worked out at 1.6 µM; at Adenosine receptor A1 [3] it was 0.71 µM.

`CCCn1c(=O)c2[nH]c(-c3ccccc3)nc2n(CCC)c1=O` displayed a Ki at Adenosine receptor A1 [2] of 0.0059 µM.

At Adenosine A2 receptor [1], `CC(C)CCn1c(=O)c2nc(-c3ccccc3)[nH]c2n(CC(C)C)c1=O` showed a Ki of 2.3 µM.

For the compound `CCCn1c(=O)c2c(nc(-c3ccc(S(=O)(=O)O)cc3)n2C)n(CCC)c1=O`, the Ki at Adenosine A2 receptor [4] worked out at 5.6 µM; on Adenosine receptor A1 [2], 4.9 µM; on Adenosine A2 receptor [1], 2.1 µM; on Adenosine receptor A1 [3] it was 15 µM.

Turning to `CC(C)CCn1c(=O)c2nc[nH]c2n(CC(C)C)c1=O`, the Ki was determined as 6.5 µM on Adenosine A2 receptor [1] and 1.6 µM on Adenosine receptor A1 [3].

With `CCCn1c(=O)[nH]c(=O)c2[nH]c(-c3ccccc3)nc21`, the results for the Ki on Adenosine A2 receptor [1] and at Adenosine receptor A1 [3] were 11 µM and 9.8 µM, respectively.

Take `Cn1c(=O)c2c(nc(-c3ccc(C(=O)O)cc3)n2C)n(C)c1=O`: the Ki on Adenosine A2 receptor [1] is 150 µM; on Adenosine receptor A1 [3], 61 µM.

In the case of `Cn1c(=O)c2c(nc(-c3ccc(S(=O)(=O)O)cc3)n2C)n(C)c1=O`, the Ki at Adenosine A2 receptor [4] is 150 µM; at Adenosine A2 receptor [1] it was 57 µM; at Adenosine receptor A1 [5] it was “Not Active”; at Adenosine receptor A1 [6], “Not Active”.

`Cn1c(=O)c2c(nc(-c3ccccc3)n2C)n(C)c1=O`: the Ki stood at 14 µM on Adenosine A2 receptor [1] and 15 µM at Adenosine receptor A1 [3].

Turning to `COC(=O)c1ccc(-c2nc3c(c(=O)n(C)c(=O)n3C)n2C)cc1`, the figures for the Ki at Adenosine A2 receptor [1] and on Adenosine receptor A1 [3] were 25 µM and 43 µM, respectively.

For `CCCn1c(=O)[nH]c(=O)c2[nH]c(C3CCCCC3)nc21`, the Ki on Adenosine A2 receptor [1] worked out at 1.1 µM; on Adenosine receptor A1 [3], 0.85 µM.

As for `CCCn1c(=O)c2c(nc(-c3ccc(C(=O)OC)cc3)n2C)n(CCC)c1=O`, the Ki at Adenosine A2 receptor [1] stood at 26 µM; at Adenosine receptor A1 [3], 3.1 µM.

For `CCCn1c(=O)c2c(nc(C3CCCCC3)n2C)n(CCC)c1=O`, the Ki on Adenosine A2 receptor [4] came to 1 µM; at Adenosine receptor A1 [2], 4.2 µM; on Adenosine A2 receptor [1] it was 0.085 µM.

`CCCn1c(=O)c2c(nc(C3CCCC3)n2C)n(CCC)c1=O`: the Ki at Adenosine A2 receptor [1] was found to be 0.22 µM.

As to `CCCn1c(=O)c2c(nc(-c3ccccc3)n2C)n(CCC)c1=O`, the Ki on Adenosine A2 receptor [1] turned out to be 2.4 µM; on Adenosine receptor A1 [3] it was 2.3 µM.

With `CCCn1c(=O)[nH]c2[nH]c(-c3ccccc3)nc2c1=O`, the Ki at Adenosine A2 receptor [4] stood at 0.073 µM; at Adenosine receptor A1 [2], 0.036 µM; at Adenosine A2 receptor [1] it was 0.02 µM; on Adenosine receptor A1 [3] it was 0.067 µM.

For the compound `CCCn1c(=O)c2c(nc(-c3ccc(C(=O)O)cc3)n2C)n(CCC)c1=O`, the Ki on Adenosine A2 receptor [1] was found to be 13 µM; at Adenosine receptor A1 [3], 4.8 µM.

As for `CCCn1c(=O)c2c(ncn2C)n(CCC)c1=O`, the Ki at Adenosine A2 receptor [4] is 5.3 µM; on Adenosine receptor A1 [2], 12 µM; on Adenosine A2 receptor [1] it was 2.8 µM; on Adenosine receptor A1 [3], 3.4 µM.

On to `CC(C)CCn1c(=O)c2nc(-c3ccc(S(=O)(=O)O)cc3)[nH]c2n(CC(C)C)c1=O`, for which the values for the Ki on Adenosine A2 receptor [1] and on Adenosine receptor A1 [3] were 0.52 µM and 1.2 µM, respectively.

Consider `CCCn1c(=O)[nH]c(=O)c2[nH]c(-c3ccc(C(=O)O)cc3)nc21`, for which the results for the Ki on Adenosine A2 receptor [1] and on Adenosine receptor A1 [3] were 14 µM and 57 µM, respectively.

As to `CCCn1c(=O)[nH]c(=O)c2[nH]c(-c3ccc(S(=O)(=O)O)cc3)nc21`, the Ki at Adenosine A2 receptor [4] was 17 µM; on Adenosine receptor A1 [2], 33 µM; on Adenosine A2 receptor [1], 2.7 µM; at Adenosine receptor A1 [3], 58 µM.

Turning to `Cn1c(=O)c2c(nc(C3CCCCC3)n2C)n(C)c1=O`, the Ki at Adenosine A2 receptor [1] came to 0.19 µM.

For the compound `Cn1c(=O)c2nc(C3CCCCC3)[nH]c2n(C)c1=O`, the Ki was found to be 0.45 µM at Adenosine A2 receptor [4], 0.041 µM on Adenosine receptor A1 [2], 0.15 µM at Adenosine A2 receptor [1] and 0.11 µM at Adenosine receptor A1 [3].

Turning to `CCCn1c(=O)c2nc(-c3ccc(S(=O)(=O)O)cc3)[nH]c2n(CCC)c1=O`, the Ki at Adenosine A2 receptor [4] worked out at 11 µM; on Adenosine receptor A1 [2] it was 0.43 µM; on Adenosine A2 receptor [1] it was 1.9 µM; on Adenosine receptor A1 [3], 0.14 µM.

For `Cn1c(=O)c2c(nc(C3CCCC3)n2C)n(C)c1=O`, the Ki on Adenosine A2 receptor [4] is 3.8 µM; at Adenosine receptor A1 [2], 14.9 µM; at Adenosine A2 receptor [1], 2.4 µM; on Adenosine receptor A1 [3], 33 µM.

`CCCn1c(=O)c2nc(-c3ccc(C(=O)O)cc3)[nH]c2n(CCC)c1=O` returned a Ki on Adenosine receptor A1 [3] of 0.2 µM.

For `Cn1c(=O)c2nc(-c3ccc(S(=O)(=O)O)cc3)[nH]c2n(C)c1=O`, the results for the Ki on Adenosine A2 receptor [4] and at Adenosine A2 receptor [1] were 5 µM and 5.5 µM, respectively.

Consider `Cn1c(=O)[nH]c2[nH]c(-c3ccccc3)nc2c1=O`, for which the Ki at Adenosine A2 receptor [4] amounted to 0.25 µM; on Adenosine receptor A1 [7] it was 0.3 µM; at Adenosine A2 receptor [1] it was 0.86 µM; at Adenosine receptor A1 [8], 0.13 µM.

Regarding `Cn1c(=O)[nH]c2[nH]cnc2c1=O` [1-METHYLXANTHINE], the Ki on Adenosine receptor A1 [9] was determined as 17 µM; on Adenosine A2 receptor [1] it was 1.9 µM.

In the case of `Cn1c(=O)[nH]c(=O)c2[nH]cnc21` [3-METHYLXANTHINE], the Ki at Adenosine A2 receptor [1] was 240 µM; at Adenosine receptor A1 [3] it was 35 µM.

With `Cn1c(=O)c2nc(-c3ccccc3)[nH]c2n(C)c1=O` [8-PHENYL THEOPHYLLINE], the Ki was 1.6 µM on Adenosine A2 receptor [4] and 1.9 µM at Adenosine A2 receptor [1].

The record behind these values is ChEMBL document CHEMBL1124484, “Effects of 8-phenyl and 8-cycloalkyl substituents on the activity of mono-, di-, and trisubstituted alkylxanthines with substitution at the 1-, 3-, and 7-positions” (J Med Chem, 1989).
